Calls of active or inactive are those of the source. No cut-off for these calls is given here.

In test [1] the test system is EC9706. Kind of test: (§1) Antiproliferative activity against human EC9706 cells at 75 uM for 24 hrs by MTT assay. Type of test: functional. (In general: Tetrazolium dyes change colour on reduction, which living cells bring about.)
The test system of test [2] is HCT-116. Kind of test: Antiproliferative activity against human HCT116 cells at 30 uM for 24 hrs by MTT assay. Type of test: functional.
For test [3], the system named is HCT-116. Kind of test: Antiproliferative activity against human HCT116 cells at 100 uM for 24 hrs by MTT assay. Type of test: functional.
Test [4] relates to EC9706. Kind of test: (§2) Antiproliferative activity against human EC9706 cells at 100 uM for 24 hrs by MTT assay. Type of test: functional.
Test [5] has as its system HCT-116. Put plainly: Induction of apoptosis in human HCT116 cells assessed as morphological changes at 100 uM after 24 hrs. Type of test: functional, cell-based.
The nature of test [6]: as §1. Type of test: functional.
Test [7] is described as follows: Cell cycle arrest in human EC9706 cells assessed as accumulation in G2/M phase at 30 uM after 12 hrs. Type of test: functional, cell-based.
Test [8] has as its system HCT-116. Kind of test: Cell cycle arrest in human HCT116 cells assessed as accumulation in G2/M phase at 30 uM after 12 hrs. Type of test: functional, cell-based.
The test system of test [9] is HCT-116. Put plainly: Induction of apoptosis in human HCT116 cells assessed as increase in cell debris at 30 uM after 18 hrs. Type of test: functional, cell-based.
The nature of test [10]: as §2. Type of test: functional.
A short description of test [11]: Cell cycle arrest in human EC9706 cells assessed as accumulation in G2/M phase at 30 uM after 18 hrs. Type of test: functional, cell-based.
The test system of test [12] is EC9706. Put plainly: Induction of apoptosis in human EC9706 cells assessed as morphological changes at 100 uM after 24 hrs. Type of test: functional, cell-based.

H-KAQIRAMECNIL-OH: the result with EC9706 [1], in the test with HCT-116 [2], in the test on HCT-116 [3] and with EC9706 [4] was inactive.
H-KAQIRAMECNILGRKKRRQRRR-OH: the result (in the test on HCT-116 [5]; in test [7]; in the test on HCT-116 [8]; in the test with HCT-116 [9]; in [11]; in the test with EC9706 [12]) was Active. For the same compound, the Activity in [6] was 69%; in the test on HCT-116 [2], 55%; in the test with HCT-116 [3], 16%; in [10], 52%.
On to `N=C(N)NCCC[C@H](NC(=O)[C@H](CCCNC(=N)N)NC(=O)[C@H](CCCNC(=N)N)NC(=O)[C@H](CCC(N)=O)NC(=O)[C@H](CCCNC(=N)N)NC(=O)[C@H](CCCNC(=N)N)NC(=O)[C@H](CCCCN)NC(=O)[C@H](CCCCN)NC(=O)[C@@H](N)CCCNC(=N)N)C(=O)O`, for which the result (in the test on HCT-116 [5]; with EC9706 [1]; in the test on HCT-116 [2]; in test [7]; with HCT-116 [3]; in the test on EC9706 [4]) was inactive. Also, the result (in test [11]; in the test on EC9706 [12]) was inactive.

The values are drawn from ChEMBL document CHEMBL1155957, “A novel peptide from alpha5 helix of Asterina pectinifera cyclin B conjugated to HIV-Tat(49-57) with cytotoxic and apoptotic effects against human cancer cells” (2008).
